What was measured:
Type in all cases: cell-based
Nav1.8 sodium channel = molecular target: T1, Nav1.8 sodium channel (Homo sapiens, UniProt Q9Y5Y9); test: Blocking activity against sodium channel 1.8 (Nav1.8), whole-cell patch-clamp, inhibition rate; details: CHO cell line stably expressing Nav1.8; patch-clamp; test concentration not given
T1 construct: host or cells: CHO
Protocol: Experimental objective: The effects of the compounds on the current of the voltage-gated sodium channel (NaV) 1.8 subtype were detected by patch-clamp technique • 2. […] When the cells were detached from the bottom of the dish, about 5 mL of preheated complete medium at 37°C was added. The cell suspension was gently pipetted up and down to separate the aggregated cells. The cell suspension was transferred to a sterile centrifuge tube and centrifuged at 1000 rpm for 5 min to collect the cells. […] First, the voltage was stepped from -130 mV to -10 mV in 10 mV increments for 5 s, and then a 0 mV depolarizing pulse was applied to obtain the half-inactivation voltage (Vhalf). The resting state and half-inactivated state of the sodium current were detected by using a double-pulse protocol. First, the first depolarizing pulse (TP1) was applied to 0 mV for 50 ms to detect the sodium current in the resting state. Then, the voltage was adjusted to Vhalf and maintained for 5 s, followed by restoration of the voltage to -120 mV and maintenance for 20 ms, after which the second depolarizing pulse (TP2) was applied to 0 mV for 50 ms to detect the sodium current in the half-inactivated state. Finally, the voltage was restored to the clamping voltage of -120 mV. Data were repeatedly collected every […] to observe the effect of the drug on the peak values of sodium currents in the two different states. Experimental data were collected by the EPC 10 amplifier (HEKA) and stored in the PatchMaster (HEKA) software. • (2) During patch clamp operation, capillary glass tubes were first pulled into recording electrodes using a microelectrode puller, then the electrodes filled with intracellular solution were installed into the microelectrode holder. Under an inverted microscope, the micromanipulator was used to bring the recording electrode into contact with the cell, and negative pressure suction was applied to form a GΩ seal. At this time, fast capacitance compensation was performed, and then negative pressure was continuously applied to rupture the cell membrane and form the whole-cell recording mode. Finally, slow capacitance compensation was performed, and related parameters were recorded. Leak compensation was not applied. • (3) When the sodium current of whole-cell recording became stable, drug administration was started, and each drug concentration was applied for 5 min (or until the current became stable) before the next concentration was tested. The coverslip coated with cells was placed in the recording bath under an inverted microscope, and the blank control external solution and the test compound working solution were perfused through the recording bath in sequence from low concentration to high concentration by gravity, thereby acting on the cells, while a peristaltic pump was used for liquid exchange during recording. The current detected in the external solution without compounds for each cell was used as its own control group. Each concentration was independently tested twice. All electrophysiological experiments were conducted at room temperature.
First, the current after the effect of each drug concentration and the blank control current were normalized, then the inhibition rate corresponding to each drug concentration was calculated, that is, (1-Icompound /Icontrol), and the mean, standard deviation (SD), and standard error (SE) of the inhibition rate for each concentration were calculated, and the data were expressed as mean ± SE.

Nav1.6 = Nav1.6 (Homo sapiens, UniProt Q9UQD0); test: Sodium channel selectivity test, patch-clamp, Nav1.6; details: read-out: Nav1.6 Inhibition rate (%)
Text: (§1) Test Example 3: Selectivity test of the compounds of the present disclosure on sodium channels • 1. Experimental objective: The effects of the compounds on the current of the voltage-gated sodium channel (NaV) subtypes 1.1-1.7 were detected by patch-clamp technique • 2. Experimental materials and instruments • 2.1 Cell lines: CHO/HEK293 cell lines stably expressing Nav1.1-1.7 sodium channels, constructed in-house by the laboratory of Beijing ICE Bioscience Co., Ltd., (Reference: Jarvis MF, Honore P, Shieh CC, Chapman M, Joshi S, Zhang XF, Kort M, Carroll W, Marron B, Atkinson R, Thomas J, Liu D, Krambis M, Liu Y, McGaraughty S, Chu K, Roeloffs R, Zhong C, Mikusa JP, Hernandez G, Gauvin D, Wade C, Zhu C, Pai M, Scanio M, Shi L, Drizin I, Gregg R, Matulenko M, Hakeem A, Gross M, Johnson M, Marsh K, Wagoner PK, Sullivan JP, Faltynek CR, Krafte DS. A-803467, a potent and selective Nav1.8 sodium channel blocker, attenuates neuropathic and inflammatory pain in the rat. Proc Natl Acad Sci U S A. 2007 May 15;104(20):8520-5. doi: 10.1073/pnas.0611364104. Epub 2007 May 2. PMID: 17483457; PMCID: PMC1895982.), gene information Nav1.1: NM_006920; Nav1.2: NM_001040142; Nav1.3: NM_006922; Nav1.4: NM_000334; Nav1.5: NM198056; Nav1.6: NM014191; Nav1.7: […]. • 2.2 Compounds: Dissolved in DMSO, with sample concentration prepared at 30 µM. • 3. Experimental methods • 3.1 Cell culture • (1) Maintenance medium: CHO cells were cultured in HAM'S/F-12 medium containing 10% fetal bovine serum, 100 µg/mL Zeocin, and 10 µg/mL Blasticidin, under conditions of 37°C incubation temperature and 5% carbon dioxide concentration. HEK-293 cells were cultured in DMEM medium containing 10% fetal bovine serum and 800 µg/mL G418; the culture temperature was 37°C, and the carbon dioxide concentration was 5%. • (2) Cell passage: The old medium was removed, and the cells were washed once with PBS, then 1 mL of 0.25%-Trypsin-EDTA solution was added and incubated at 37°C for approximately 1.5 min. When the cells were detached from the bottom of the dish, about 5 mL of preheated complete medium at 37°C was added. […]

Nav1.2 = Nav1.2 (Homo sapiens, UniProt Q99250); test: Sodium channel selectivity test, patch-clamp, Nav1.2; details: read-out: Nav1.2 Inhibition rate (%)
Text: as §1

T1 sequence (Q9Y5Y9 whole entry): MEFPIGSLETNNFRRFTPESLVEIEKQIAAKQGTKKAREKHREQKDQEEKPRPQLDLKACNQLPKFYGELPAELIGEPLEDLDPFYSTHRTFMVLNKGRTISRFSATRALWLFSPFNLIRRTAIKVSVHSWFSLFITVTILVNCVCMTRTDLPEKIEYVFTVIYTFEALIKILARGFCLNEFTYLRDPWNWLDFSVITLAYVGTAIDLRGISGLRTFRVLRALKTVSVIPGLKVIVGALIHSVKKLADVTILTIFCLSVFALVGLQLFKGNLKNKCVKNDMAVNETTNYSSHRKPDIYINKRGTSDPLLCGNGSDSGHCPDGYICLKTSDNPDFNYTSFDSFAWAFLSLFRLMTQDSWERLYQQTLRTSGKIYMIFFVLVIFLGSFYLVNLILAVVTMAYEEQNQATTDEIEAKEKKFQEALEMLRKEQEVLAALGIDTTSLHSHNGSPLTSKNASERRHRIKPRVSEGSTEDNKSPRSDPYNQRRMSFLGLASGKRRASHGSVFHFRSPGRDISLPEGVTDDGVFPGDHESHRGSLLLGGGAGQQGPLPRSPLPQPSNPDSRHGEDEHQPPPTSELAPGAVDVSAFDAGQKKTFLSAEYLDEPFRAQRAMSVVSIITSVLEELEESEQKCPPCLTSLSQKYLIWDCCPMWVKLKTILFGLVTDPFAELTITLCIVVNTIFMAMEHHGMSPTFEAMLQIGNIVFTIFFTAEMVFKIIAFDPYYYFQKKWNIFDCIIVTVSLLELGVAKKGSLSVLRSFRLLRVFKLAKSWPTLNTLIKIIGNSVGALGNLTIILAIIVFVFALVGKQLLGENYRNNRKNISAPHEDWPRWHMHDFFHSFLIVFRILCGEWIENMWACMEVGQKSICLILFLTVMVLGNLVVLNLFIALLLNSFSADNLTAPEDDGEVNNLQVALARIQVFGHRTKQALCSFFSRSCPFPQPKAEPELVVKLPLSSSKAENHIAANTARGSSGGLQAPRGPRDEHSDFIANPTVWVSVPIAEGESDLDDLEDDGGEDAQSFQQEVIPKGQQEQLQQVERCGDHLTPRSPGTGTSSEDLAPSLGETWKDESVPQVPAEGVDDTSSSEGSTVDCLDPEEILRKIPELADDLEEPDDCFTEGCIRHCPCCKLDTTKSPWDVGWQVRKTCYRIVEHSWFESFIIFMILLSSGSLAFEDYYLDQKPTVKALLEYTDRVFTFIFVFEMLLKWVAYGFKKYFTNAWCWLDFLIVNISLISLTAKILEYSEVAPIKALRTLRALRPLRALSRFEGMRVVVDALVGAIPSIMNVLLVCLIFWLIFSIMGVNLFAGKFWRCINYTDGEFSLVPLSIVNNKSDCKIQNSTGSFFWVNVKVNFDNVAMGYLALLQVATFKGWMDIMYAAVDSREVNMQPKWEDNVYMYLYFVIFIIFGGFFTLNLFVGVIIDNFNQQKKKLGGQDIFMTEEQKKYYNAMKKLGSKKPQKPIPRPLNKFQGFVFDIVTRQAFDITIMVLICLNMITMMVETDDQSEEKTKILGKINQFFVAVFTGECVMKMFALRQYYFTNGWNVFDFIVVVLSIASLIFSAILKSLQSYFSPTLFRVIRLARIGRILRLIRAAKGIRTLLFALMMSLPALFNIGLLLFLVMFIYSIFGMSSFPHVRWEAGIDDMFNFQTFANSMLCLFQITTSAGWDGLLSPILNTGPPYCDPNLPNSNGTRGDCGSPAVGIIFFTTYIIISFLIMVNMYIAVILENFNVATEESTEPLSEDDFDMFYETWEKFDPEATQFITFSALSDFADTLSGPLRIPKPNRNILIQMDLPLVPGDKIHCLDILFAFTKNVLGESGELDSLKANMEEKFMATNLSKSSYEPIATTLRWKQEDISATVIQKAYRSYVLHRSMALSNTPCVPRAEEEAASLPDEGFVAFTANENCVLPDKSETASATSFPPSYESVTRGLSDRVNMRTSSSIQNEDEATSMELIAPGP
Sequence of Nav1.6 (Q9UQD0 whole entry): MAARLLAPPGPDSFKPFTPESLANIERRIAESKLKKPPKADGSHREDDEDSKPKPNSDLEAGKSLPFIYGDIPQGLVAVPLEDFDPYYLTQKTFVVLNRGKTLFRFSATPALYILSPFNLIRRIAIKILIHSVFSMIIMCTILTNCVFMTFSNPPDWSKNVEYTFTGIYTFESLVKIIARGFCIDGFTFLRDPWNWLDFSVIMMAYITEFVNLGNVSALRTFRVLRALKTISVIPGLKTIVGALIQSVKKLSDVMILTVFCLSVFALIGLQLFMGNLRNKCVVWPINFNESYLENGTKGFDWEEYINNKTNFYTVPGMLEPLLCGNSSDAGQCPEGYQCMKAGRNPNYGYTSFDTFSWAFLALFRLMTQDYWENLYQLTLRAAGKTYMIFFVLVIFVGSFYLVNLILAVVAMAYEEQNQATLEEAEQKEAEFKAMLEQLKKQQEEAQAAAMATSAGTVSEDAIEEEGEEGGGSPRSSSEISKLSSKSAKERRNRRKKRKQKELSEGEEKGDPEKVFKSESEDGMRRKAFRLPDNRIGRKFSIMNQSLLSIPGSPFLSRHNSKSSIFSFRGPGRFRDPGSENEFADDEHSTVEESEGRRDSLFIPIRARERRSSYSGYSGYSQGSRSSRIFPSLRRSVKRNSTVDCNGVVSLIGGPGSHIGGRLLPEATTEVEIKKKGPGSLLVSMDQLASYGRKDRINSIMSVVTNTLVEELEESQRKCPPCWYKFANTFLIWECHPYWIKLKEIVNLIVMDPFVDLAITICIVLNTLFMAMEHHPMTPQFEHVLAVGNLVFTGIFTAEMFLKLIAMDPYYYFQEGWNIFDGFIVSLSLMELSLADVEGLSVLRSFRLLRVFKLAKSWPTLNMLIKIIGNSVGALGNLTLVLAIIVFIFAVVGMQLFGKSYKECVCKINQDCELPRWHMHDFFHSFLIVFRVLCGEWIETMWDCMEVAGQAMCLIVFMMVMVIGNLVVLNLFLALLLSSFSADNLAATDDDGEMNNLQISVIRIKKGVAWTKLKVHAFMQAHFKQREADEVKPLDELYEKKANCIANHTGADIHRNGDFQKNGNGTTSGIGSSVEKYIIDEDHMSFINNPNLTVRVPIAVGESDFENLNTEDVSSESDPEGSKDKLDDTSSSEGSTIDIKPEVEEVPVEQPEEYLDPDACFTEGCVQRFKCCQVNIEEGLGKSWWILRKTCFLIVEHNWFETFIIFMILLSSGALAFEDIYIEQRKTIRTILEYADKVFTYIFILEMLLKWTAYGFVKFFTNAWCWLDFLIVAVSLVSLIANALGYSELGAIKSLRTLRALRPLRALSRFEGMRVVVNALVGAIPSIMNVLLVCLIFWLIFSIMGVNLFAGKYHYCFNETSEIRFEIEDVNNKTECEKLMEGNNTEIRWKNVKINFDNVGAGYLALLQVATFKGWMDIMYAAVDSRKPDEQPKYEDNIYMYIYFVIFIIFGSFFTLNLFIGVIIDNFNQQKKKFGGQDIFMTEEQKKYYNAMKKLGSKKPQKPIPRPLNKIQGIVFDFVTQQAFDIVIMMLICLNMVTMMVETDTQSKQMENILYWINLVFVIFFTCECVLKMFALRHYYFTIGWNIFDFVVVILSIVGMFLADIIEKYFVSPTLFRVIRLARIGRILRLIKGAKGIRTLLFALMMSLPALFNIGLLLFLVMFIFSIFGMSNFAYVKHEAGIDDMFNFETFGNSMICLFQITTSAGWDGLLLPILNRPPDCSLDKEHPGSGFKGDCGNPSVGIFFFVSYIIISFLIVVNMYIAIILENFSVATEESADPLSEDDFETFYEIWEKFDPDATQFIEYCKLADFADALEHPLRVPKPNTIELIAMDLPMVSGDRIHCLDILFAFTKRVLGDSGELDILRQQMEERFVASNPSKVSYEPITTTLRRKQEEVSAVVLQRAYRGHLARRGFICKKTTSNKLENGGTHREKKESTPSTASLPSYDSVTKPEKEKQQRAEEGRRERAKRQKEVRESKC

COCCOc1c([C@H]2[C@H](C(=O)Nc3ccc(F)c(C(=N)NO)c3)O[C@@](C)(C(F)(F)F)[C@H]2C)ccc(F)c1F [Example 10]
Inhibition rate (%) (Nav1.8 sodium channel): 99.65%
inhibition at 30 µM (Nav1.6): 36%
inhibition at 30 µM (Nav1.2): 32.8%

C[C@H]1[C@@H](c2ccc(F)c(F)c2OC2COC2)[C@H](C(=O)Nc2ccc(F)c(C(=N)NO)c2)O[C@@]1(C)C(F)(F)F [Example 11]
Inhibition rate (%) (Nav1.8 sodium channel): 87.35%
inhibition at 30 µM (Nav1.6): 19.5%
inhibition at 30 µM (Nav1.2): 16%

COc1c([C@H]2[C@H](C(=O)Nc3ccnc(C(N)=O)c3)O[C@@](C)(C(F)(F)F)[C@H]2C)ccc(F)c1F [Reference compound, reference compound]
Inhibition rate (%) (Nav1.8 sodium channel): 94.49%
inhibition at 30 µM (Nav1.6): 42.9%
inhibition at 30 µM (Nav1.2): 53.6%
